The results in this text go back to patent US20070093410A1, “Selective inhibition of proteasomes of tuberculosis and other bacteria” (President and Fellows of Harvard College, priority 2004, published 2007).

Data set [1] relates to SDS-activated 20S mammalian proteasomes. The experiment in a line: bKKQ10KK cleavage by 20S mammalian proteasomes after inactivation of each type of active site. Type of data set: biochemical, rabbit. Conditions: proteasomes pre-treated with inhibitor, then incubated with bKKQ10KK; FIG. 1D. The protocol: (§1) FIGS. 1A-1D depict hydrolysis of bKKQ10KK (SEQ ID NO:5) by the trypsin-like active site of the eukaryotic proteasome. A) 80 μM bKKQ10KK (SEQ ID NO:5) was incubated with mammalian (rabbit) 20S proteasomes with or without PA28αβ, 0.02% SDS. B) 35 μM bKKQ10KK (SEQ ID NO:5) was incubated with yeast wild type and ‘open-gate’ (α3ΔN) proteasomes. C) Mammalian 20S proteasomes were treated with inhibitors specific to each active site. D) After inactivation, the proteasomes were further incubated with bKKQ10KK (SEQ ID NO:5).
(§2) To identify which active site of the proteasome cleaved after bKKQ, inhibitors that selectively block the individual active sites were used. SDS-activated 20S mammalian proteasomes were treated with the irreversible inhibitors, 4-hydroxy-5-iodo-3-nitrophenylacetyl-Leu-Leu-vinyl sulfone (NLVS); (Bogyo et al., supra, incorporated herein by reference in its entirety for all purposes), which is specific for the chymotrypsin-like site; Acetyl-Tyr-Arg-Leu-Asn-vinyl sulfone (SEQ ID NO:20) (Ac-YRLN-VS), which reacts primarily with the trypsin-like site (Nazif et al. (2001) Proc. Natl. Acad. Sci. USA 98:2967, incorporated herein by reference in its entirety for all purposes); or with the reversible inhibitor of the caspase-like site, Z-Pro-norLeu-Asp-aldehyde (Z-PnLD-CHO) (Kisselev et al. (2003) supra, incorporated herein by reference in its entirety for all purposes). The extent of inhibition of the different sites was assayed using fluorogenic substrates specific for each active site. […] After inactivation of each type of active site, the proteasomes were incubated with bKKQ10KK. […] Thus, cleavage after bKKQ was due to the activity of the trypsin-like site, presumably because of the two-lysine residues preceding the initial Q residue.
For 20S proteasomes, 20 mM Hepes (pH 7.5) containing 1 mM dithiothreitol (DTT) was used. For reactions with 26S proteasomes, the buffer also contained 0.5 mM ATP and 2.5 mM MgCl2. All reactions were performed at 37° C. […] The reaction was terminated with 0.4 ml of ice-cold water and fluorescence read at 380 nm excitation and 470 nm emission. […]

The test system is the same in data set [2]. The experiment in a line: Inhibition of individual active sites of SDS-activated 20S mammalian proteasomes, fluorogenic substrates specific for each active site. The class given is biochemical, rabbit. Conditions: sites other than the one the inhibitor is specific for; FIG. 1C. The protocol:
as §1, §2

In data set [3] the target is T1, archaebacterial 'open-gate' 20S proteasomes (Thermoplasma acidophilum, UniProt P28061).
T1 sequence (P28061 9-211): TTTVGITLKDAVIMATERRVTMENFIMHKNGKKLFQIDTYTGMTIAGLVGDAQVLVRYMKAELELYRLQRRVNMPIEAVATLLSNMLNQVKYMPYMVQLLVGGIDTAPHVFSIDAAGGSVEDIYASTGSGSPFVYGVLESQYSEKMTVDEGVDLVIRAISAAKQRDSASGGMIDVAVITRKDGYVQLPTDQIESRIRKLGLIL
Description: Hydrolysis of bKKQ20KK by archaebacterial 'open-gate' 20S proteasomes, effect of proteasome inhibitor. Conditions: 37° C. The class given is biochemical. The protocol:
(§3) FIGS. 4A-4B depict multiple cleavages within the polyQ sequence by archaebacterial proteasomes. A) bKKQ20KK (SEQ ID NO:9) (25 μM) was incubated with 0.6 μg of yeast or 250 ng of archaebacterial ‘open-gate’ 20S particles in a total volume of 50 μl. B) Products generated by the archaebacterial proteasomes were analyzed by MALDI-TOF.
(§4) 20S proteasomes of archaebacteria, e.g., Thermoplasma acidophilum, contain 14 identical active sites, which, though originally classified as “chymotrypsin-like” (Dahlmann et al. (1991) Biomed. Biochim. Acta 50:465, incorporated herein by reference in its entirety for all purposes), were later shown to cleave also after basic and acidic residues (Akopian et al., supra). These “less-specific” active sites were tested to determine if they could degrade within a polyQ sequence. […] It was determined that mutant archaebacterial proteasomes lacking this gate (Δ7α) (Benaroudj et al., supra, incorporated herein by reference in its entirety for all purposes) cleaved polyQ peptides and control peptides at least 17 fold faster than the wild-type particles. […]
(§5) For 20S proteasomes, 20 mM Hepes (pH 7.5) containing 1 mM dithiothreitol (DTT) was used. […] The reaction was terminated with 0.4 ml of ice-cold water and fluorescence read at 380 nm excitation and 470 nm emission.

In the next data set the test system is rabbit 26S proteasomes. Description: Peptide cleavage by 26S proteasomes (new amino groups, fluorescamine assay). The class given is biochemical. The following applies: 35 μM peptide, FIG. 2. On the procedure:
FIG. 2 graphically depicts rapid cleavage of the flanking RRGRR (SEQ ID NO:6) in Q20RRGRR (SEQ ID NO:7) by eukaryotic proteasomes. 35 μM of each of the following peptides bKKQ10KK (SEQ ID NO:8), bKKQ20KK (SEQ ID NO:9), N-extended-KK-Q20-KK (SEQ ID NO:10), Q20RRGRR (SEQ ID NO:7) and a control 20-mer peptide […] (SEQ ID NO:12), lacking any repeat sequence were incubated with 7.2 μg of rabbit 26S particles in a total volume of 40 μl. New amino groups formed were assayed.
Although 26S proteasomes cleaved these polyQ peptides slowly and only after the initial Q residues, they cleaved a Q20 (SEQ ID NO: 30) sequence with RRGRR (SEQ ID NO:6) at its C-terminus 5 to 6-fold faster than other polyQ peptides (FIG. 2) studied and at similar rates to the 20-mer control peptide (though not as fast as YGGFLRRIRPKLK (SEQ ID NO:29), a 13-mer which is cleaved at least 2 times faster).
For 20S proteasomes, 20 mM Hepes (pH 7.5) containing 1 mM dithiothreitol (DTT) was used. For reactions with 26S proteasomes, the buffer also contained 0.5 mM ATP and 2.5 mM MgCl2. All reactions were performed at 37° C. 5 μl aliquots were withdrawn at different times, 50 μl of 0.2M sodium phosphate (pH 6.8) was added and then mixed vigorously with 50 μl fluorescamine for 3 minutes. The reaction was terminated with 0.4 ml of ice-cold water and fluorescence read at 380 nm excitation and 470 nm emission.

The next data set deals with T2, bKKQ10KK (SEQ ID NO:8).
T2 sequence: KKQQQQQQQQQQKK

A further data set deals with T3, bKKQ20KK (SEQ ID NO:9).
T3 sequence: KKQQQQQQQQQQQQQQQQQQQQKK

The subject of another data set is eukaryotic proteasomes. The experiment in a line: Competitive inhibition of hydrolysis of standard fluorogenic substrates by eukaryotic proteasomes. Type of data set: biochemical. An excerpt:
In contrast to eukaryotic proteasomes, the ancestral particles from the archaebacterium T. acidophilum digested polyQ peptides very rapidly and degraded completely the myoglobin-polyQ fusion protein. Unlike the eukaryotic homologs, these prokaryotic proteasomes contain 14 identical active sites of broad specificity. […] The data presented herein indicate that the trypsin-like sites can cleave after a P1 glutamine if the preceding residue at P2 is a lysine and at P3 a αN-blocked lysine. […] Thus, their failure to degrade polyQ-sequences is due to the inability of their active sites to bind the polyQ repeat, not to the proteasome's unique catalytic mechanism, which is similar in eukaryotic and archaebacterial particles.

Another data set has as its system yeast 20S proteasomes. Description: Hydrolysis of bKKQ10KK by yeast wild type and 'open-gate' (α3ΔN) 20S proteasomes. The following applies: 35 μM bKKQ10KK; FIG. 1B. Type of data set: biochemical. On the procedure: as §1
To test whether 20S proteasomes could cleave within a polyQ sequence, a peptide containing 10 Q-residues flanked at each end by two lysine residues to enhance solubility (bKKQ10KK) (SEQ ID NO:8) and biotin on the α amino group was initially used as a substrate. […] Similarly, a mutant form (α3ΔN) of the yeast proteasome with an N-terminal deletion in the α3 subunit, which causes ‘gate-opening’, hydrolyzed bKKQ10KK (SEQ ID NO:8), approximately ten-fold faster than the wild-type (FIG. 1B). Thus, entry of this peptide and its cleavage depends on the presence of an ‘open-gate’ in the α-ring. […]
as §5

For data set [4], the target named is T1, archaebacterial 'open-gate' 20S proteasomes. Description: Cleavage of polyQ peptides by archaebacterial 'open-gate' (Δ7α) 20S proteasomes. The class given is biochemical. Conditions: half the concentration of the yeast particles, 37° C. On the procedure:
as §3, §4, §5

In data set [5] the test system is T4, Acetyl-Tyr-Arg-Leu-Asn-vinyl sulfone (SEQ ID NO:20).
T4 sequence: YRLN

Data set [6] deals with bovine PA 28alpha-beta (Boston Biochem, Inc.).

Non-standard residues stand in square brackets, D forms with d. Residues, ends and D or L forms follow the SMILES beside them. No end group written: not given here. *: point of attachment. Biotin = O=C1N[C@H]2[C@H](CS[C@H]2CCCCC(=O)*)N1; Nle = CCCC[C@H](N)C(=O)O; Cbz = O=C(OCc1ccccc1)* Some results are limits rather than exact numbers.

“4-hydroxy-5-iodo-3-nitrophenylacetyl-Leu-Leu-vinyl sulfone [NLVS]”: in [1], the “reduction of bKKQ10KK cleavage” value is “no significant effect”. Also, the “effect on the other two peptidase activities” value (“effect” for short) in data set [2] was “without significantly affecting the other two”.

As for `CC(C)C[C@@H](C=O)NC(=O)[C@H](CC(C)C)NC(=O)[C@H](CC(C)C)NC(=O)OCc1ccccc1` [MG132] (Cbz-Leu-Leu-Leu-aldehyde), the “inhibition of bKKQ20KK hydrolysis” value in data set [3] is recorded as “inhibited this process”.

In the case of `CCCC[C@H](NC(=O)[C@@H]1CCCN1C(=O)OCc1ccccc1)C(=O)N[C@H](C=O)CC(=O)O` [Z-PnLD-CHO, Z-Pro-norLeu-Asp-aldehyde] (Cbz-Pro-[Nle]-Asp-aldehyde), the “reduction of bKKQ10KK cleavage” value in data set [1] was “no significant effect”. In data set [2], the “effect” value was “without significantly affecting the other two”.

As for “Acetyl-Tyr-Arg-Leu-Asn-vinyl sulfone (Ac-YRLN-{vinyl sulfone}) [Ac-YRLN-VS]”, the “reduction of bKKQ10KK cleavage” value in data set [1] is “about 70%”. Besides, the “effect” value in data set [2] is on record as “without significantly affecting the other two”.

Turning to “Q20RRGRR: Q20 sequence with RRGRR at its C-terminus (SEQ ID NO:7) (QQQQQQQQQQQQQQQQQQQQRRGRR; Peptide generated by solid-phase peptide synthesis)”, the “cleavage rate relative to other polyQ peptides” value in the data set on rabbit 26S proteasomes is 5 to 6 fold.

As to “archaebacterial 'open-gate' 20S proteasomes (delta7alpha) of Thermoplasma acidophilum”, the “rate of peptide cleavage against yeast 'open-gate' 20S proteasomes, 37° C.” value in the data set with bKKQ10KK (SEQ ID NO:8) was “cleaved both bKKQ10KK (SEQ ID NO:8) and bKKQ20KK (SEQ ID NO:9) at least 70 times faster than the yeast ‘open-gate’ 20S proteasomes”; in the data set on bKKQ20KK (SEQ ID NO:9) it was “cleaved both bKKQ10KK (SEQ ID NO:8) and bKKQ20KK (SEQ ID NO:9) at least 70 times faster than the yeast ‘open-gate’ 20S proteasomes”.

As to “bKKQ10KK: peptide containing 10 Q-residues flanked at each end by two lysine residues, biotin on the α amino group (SEQ ID NO:8) (Biotin-KKQQQQQQQQQQKK)”, in the data set with eukaryotic proteasomes, the “competitive inhibition of hydrolysis of standard fluorogenic substrates” value is on record as “could not competitively inhibit”. In addition, the “hydrolysis rate by α3ΔN mutant relative to wild-type yeast proteasome” value in the data set on yeast 20S proteasomes was “approximately ten-fold”.

“bKKQ20KK: Q20 sequence flanked by two lysine residues on each end and biotin on the α amino group (SEQ ID NO:9) (Biotin-KKQQQQQQQQQQQQQQQQQQQQKK)”: in data set [4], the “time to complete consumption of the peptide” value is at most 45 min.

As to rabbit 20S proteasomes, in data set [5], the “decrease in the individual peptidase activities (fluorogenic substrates specific for each active site)” value is on record as “Each inhibitor caused an 85%-95% decrease in the individual peptidase activities without significantly affecting the other two” and the “reduction of bKKQ10KK cleavage” value is reported as “Treatment with Ac-YRLN-VS (SEQ ID NO:20) reduced bKKQ10KK (SEQ ID NO:8) cleavage by about 70%”. Further, in data set [6], the “hydrolysis of bKKQ10KK and of standard fluorogenic peptide substrates” value is “Rabbit 20S proteasomes, when purified in their latent state, were inactive against bKKQ10KK (SEQ ID NO:8) (FIG. 1A) or against standard fluorogenic peptide substrates, unless PA28αβ, or 0.02% SDS was added”.
